SMILES strings stand for the structures.

The source of these data is patent US7855292B2, “Sulfonamide compounds” (Janssen Pharmaceutica NV, priority 2004, dated 2010).

One test deals with T1, CCK2 receptor (Cavia porcellus, UniProt H0VZC5).
T1 construct: strips of muscle were dissected and suspended in isolated tissue organ baths; from tissue; host or cells: guinea-pig gastric corpeal muscle strips
T1 sequence (H0VZC5 1-426): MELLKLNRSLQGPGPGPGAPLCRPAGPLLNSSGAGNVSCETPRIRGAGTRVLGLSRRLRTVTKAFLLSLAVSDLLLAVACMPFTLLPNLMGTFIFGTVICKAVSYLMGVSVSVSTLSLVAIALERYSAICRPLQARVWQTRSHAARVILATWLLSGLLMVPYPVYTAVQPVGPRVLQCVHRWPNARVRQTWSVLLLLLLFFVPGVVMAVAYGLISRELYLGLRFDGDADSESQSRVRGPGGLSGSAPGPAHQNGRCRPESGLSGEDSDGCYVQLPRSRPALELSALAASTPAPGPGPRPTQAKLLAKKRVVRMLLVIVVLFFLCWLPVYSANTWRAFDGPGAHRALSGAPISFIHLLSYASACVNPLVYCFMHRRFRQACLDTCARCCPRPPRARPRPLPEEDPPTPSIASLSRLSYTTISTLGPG
The test can be described thus: Guinea-pig gastric corpeal muscle assay (pentagastrin-induced contraction). The note with it: isolated guinea-pig gastric corpeal muscle strips, pentagastrin concentration-response curves. As for the experimental part: B. Guinea-Pig Gastric Corpeal Muscle Assay
CCK2 receptor-mediated muscle contraction was measured in an isolated muscle-strip assay of guinea-pig gastric corpeal muscle according to the methods described by Roberts et al. (S. P. Roberts, E. A. Harper, G. F. Watt, V. P. Gerskowitch, R. A. Hull, N. P. Shankley, and J. W. Black, Br. J. Pharmacol., 1996, 118(7):1779-1789). In brief, strips of muscle were dissected and suspended in isolated tissue organ baths for isotonic muscle contraction recording. The baths, containing Krebs-Henseleit solution, were maintained at 24° C. and gassed continuously with 95% O2 and 5% CO2. CCK1 receptors known to be present in this assay were blocked using a selective concentration of a suitable CCK1 receptor antagonist (e.g. 2-NAP). The effectiveness of the test compounds was assessed by measuring their effect on contractile concentration-response curves obtained using a well-characterized surrogate for the hormone gastrin (pentagastrin).

A further test deals with T2, CCK-1 receptor (Homo sapiens, UniProt P32238).
T2 construct: expressed in transfected cells; host or cells: CHO-K1
T2 sequence (P32238 1-428): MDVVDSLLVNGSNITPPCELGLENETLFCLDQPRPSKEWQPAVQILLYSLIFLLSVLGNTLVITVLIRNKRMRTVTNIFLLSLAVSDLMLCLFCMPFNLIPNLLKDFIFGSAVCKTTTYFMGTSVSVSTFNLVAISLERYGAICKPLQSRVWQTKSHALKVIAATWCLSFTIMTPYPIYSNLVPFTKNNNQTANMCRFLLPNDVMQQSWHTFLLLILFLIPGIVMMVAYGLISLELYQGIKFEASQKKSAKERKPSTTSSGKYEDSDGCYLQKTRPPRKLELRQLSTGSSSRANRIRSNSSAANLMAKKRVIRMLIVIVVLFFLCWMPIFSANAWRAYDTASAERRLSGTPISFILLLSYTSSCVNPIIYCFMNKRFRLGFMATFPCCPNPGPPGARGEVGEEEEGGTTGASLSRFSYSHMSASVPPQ
Description: CCK1 binding assay ([125I]-BH-CCK-8S displacement, CHO-K1 membranes). As to conditions: membranes of CHO-K1 cells stably transfected with the CCK-1 receptor; 20 pM [125I]-BH-CCK-8S; 0.3 μM PD-134,308 present; 60 min at 21±3° C. An outline of the steps:
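Membranes from CHO-K1 cells stably expressing CCK-1 incubated 1 h at 21±3° C with 20 pM [125I]-BH-CCK-8S in HEPES buffer pH 7.2 containing 0.3 μM PD-134,308 to block CCK-2. Bound radioactivity read by gamma counting after filtration. pKi derived via Cheng-Prusoff, with specific binding defined using 2-NAP.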

With `O=C(N[C@@H](Cc1ccc(Cl)c(Cl)c1)C(=O)O)c1ccc(I)cc1NS(=O)(=O)c1cccc2nsnc12` [Example 2, (S)-2-[2-(Benzo[1,2,5]thiadiazole-4-sulfonylamino)-4-iodo-benzoylamino]-3-(3,4-dichloro-phenyl)-propionic acid], at CCK2 receptor, the “behaviour in the muscle contraction assay (mode of antagonism)” value was “competitive antagonist”. The compound also showed a Kb at CCK2 receptor (CCK1 receptors blocked (e.g. 2-NAP), 24° C.) of 1.58 nM. In addition, at CCK-1 receptor, the “CCK1 pKi” value came out at 6.7.
